US20090118332A1, “Therapeutic Agents - 551” (AstraZeneca AB, priority 2006, published 2009)

Molecular target: T1, human Fatty Acid Synthase (Homo sapiens, UniProt P49327)
T1 construct: made in house
Assay: Human FAS enzyme assay (decrease in NADPH fluorescence)
Format: biochemical
Settings: % inhibition at a concentration of 100 μmolar
In short: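 In-house human FAS was preincubated with compound and NADPH for 15 min at room temperature in 0.1 M Tris pH 7.5 with EDTA, glutathione and BSA. Malonyl CoA and acetyl CoA (500 μM and 150 μM in the added mix) were then added for 60 min. IC50 came from time-zero-subtracted NADPH fluorescence (340/460 nm).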

T1 sequence (P49327 whole entry): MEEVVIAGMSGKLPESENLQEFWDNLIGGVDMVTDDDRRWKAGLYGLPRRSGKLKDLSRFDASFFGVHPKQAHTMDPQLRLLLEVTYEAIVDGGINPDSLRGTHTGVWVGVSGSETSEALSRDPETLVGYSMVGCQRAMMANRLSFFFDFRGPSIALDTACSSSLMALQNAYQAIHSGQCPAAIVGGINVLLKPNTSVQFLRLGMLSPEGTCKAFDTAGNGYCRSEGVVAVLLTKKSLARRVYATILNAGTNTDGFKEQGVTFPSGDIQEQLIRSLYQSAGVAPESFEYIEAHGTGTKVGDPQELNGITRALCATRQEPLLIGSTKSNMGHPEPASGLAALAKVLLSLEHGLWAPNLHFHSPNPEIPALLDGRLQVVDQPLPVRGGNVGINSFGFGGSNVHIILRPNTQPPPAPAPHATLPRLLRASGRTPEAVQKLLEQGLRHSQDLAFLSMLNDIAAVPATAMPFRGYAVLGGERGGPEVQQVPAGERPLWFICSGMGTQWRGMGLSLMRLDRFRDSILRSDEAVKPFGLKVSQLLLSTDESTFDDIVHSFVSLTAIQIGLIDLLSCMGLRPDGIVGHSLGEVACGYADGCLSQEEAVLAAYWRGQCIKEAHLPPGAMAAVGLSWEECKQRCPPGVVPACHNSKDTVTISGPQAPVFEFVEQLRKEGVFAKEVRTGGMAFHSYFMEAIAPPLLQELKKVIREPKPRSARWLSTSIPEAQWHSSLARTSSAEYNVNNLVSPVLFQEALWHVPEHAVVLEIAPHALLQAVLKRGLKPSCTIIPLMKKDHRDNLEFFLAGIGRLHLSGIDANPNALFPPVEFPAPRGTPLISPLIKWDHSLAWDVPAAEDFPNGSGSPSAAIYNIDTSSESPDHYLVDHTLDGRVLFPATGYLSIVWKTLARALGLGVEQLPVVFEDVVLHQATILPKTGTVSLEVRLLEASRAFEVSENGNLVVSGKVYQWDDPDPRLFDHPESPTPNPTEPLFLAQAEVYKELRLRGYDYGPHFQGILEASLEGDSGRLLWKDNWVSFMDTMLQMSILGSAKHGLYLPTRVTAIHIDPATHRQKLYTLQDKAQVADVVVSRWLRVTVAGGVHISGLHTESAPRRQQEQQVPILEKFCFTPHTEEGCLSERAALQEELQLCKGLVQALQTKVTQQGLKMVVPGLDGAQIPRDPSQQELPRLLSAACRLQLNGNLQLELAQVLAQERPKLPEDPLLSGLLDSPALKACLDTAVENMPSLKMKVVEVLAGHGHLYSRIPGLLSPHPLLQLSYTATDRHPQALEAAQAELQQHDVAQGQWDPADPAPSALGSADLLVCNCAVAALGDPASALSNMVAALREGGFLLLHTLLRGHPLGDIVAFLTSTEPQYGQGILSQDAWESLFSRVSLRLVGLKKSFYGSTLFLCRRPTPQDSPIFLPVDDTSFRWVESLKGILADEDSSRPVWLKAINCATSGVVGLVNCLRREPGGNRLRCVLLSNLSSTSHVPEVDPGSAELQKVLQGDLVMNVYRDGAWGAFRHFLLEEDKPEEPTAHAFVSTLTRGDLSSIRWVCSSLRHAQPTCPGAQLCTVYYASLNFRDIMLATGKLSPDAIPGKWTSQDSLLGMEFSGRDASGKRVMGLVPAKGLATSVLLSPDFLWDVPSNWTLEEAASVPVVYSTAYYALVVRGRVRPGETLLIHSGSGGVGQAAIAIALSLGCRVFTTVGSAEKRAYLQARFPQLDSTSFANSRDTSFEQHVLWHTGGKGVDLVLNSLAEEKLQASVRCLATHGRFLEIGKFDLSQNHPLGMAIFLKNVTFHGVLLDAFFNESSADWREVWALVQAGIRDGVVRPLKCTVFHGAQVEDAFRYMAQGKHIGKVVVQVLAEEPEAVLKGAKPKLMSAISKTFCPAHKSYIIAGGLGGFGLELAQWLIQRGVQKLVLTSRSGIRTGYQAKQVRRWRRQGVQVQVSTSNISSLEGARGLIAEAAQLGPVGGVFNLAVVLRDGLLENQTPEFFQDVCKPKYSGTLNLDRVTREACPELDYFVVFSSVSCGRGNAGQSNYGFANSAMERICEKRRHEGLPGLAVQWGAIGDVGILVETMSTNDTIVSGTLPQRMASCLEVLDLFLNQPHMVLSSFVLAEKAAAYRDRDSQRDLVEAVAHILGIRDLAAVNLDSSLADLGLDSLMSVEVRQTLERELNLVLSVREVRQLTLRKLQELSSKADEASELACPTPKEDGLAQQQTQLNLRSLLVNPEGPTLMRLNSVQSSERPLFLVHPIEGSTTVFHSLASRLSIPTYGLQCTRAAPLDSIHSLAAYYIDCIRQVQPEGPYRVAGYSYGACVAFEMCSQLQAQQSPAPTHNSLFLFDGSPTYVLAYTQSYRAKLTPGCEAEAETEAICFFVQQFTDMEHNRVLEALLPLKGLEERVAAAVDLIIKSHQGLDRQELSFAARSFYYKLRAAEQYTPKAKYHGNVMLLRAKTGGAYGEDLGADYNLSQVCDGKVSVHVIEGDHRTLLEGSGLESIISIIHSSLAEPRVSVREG

Q: How did the inhibition at 100 µM turn out when `Cc1ccc(C(=O)N2CCC(c3ccc(C#N)cc3)CC2)cc1NC(=O)N1CCN(S(C)(=O)=O)CC1` [Example 322, N-[5-[4-(4-cyanophenyl)piperidine-1-carbonyl]-2-methyl-phenyl]-4-methylsulfonyl-piperazine-1-carboxamide] was run?
A: 90.5%

Q: Which inhibition at 100 µM does the source give for `Cc1ccc(C(=O)N2CCC(c3ccc(C#N)cc3)CC2)cc1NC(=O)N[C@H]1CC[C@H](NS(=O)(=O)N(C)C)C1` [Example 323, 1-[5-[4-(4-cyanophenyl)piperidine-1-carbonyl]-2-methyl-phenyl]-3-[(1S,3S)-3-(dimethylsulfamoylamino)cyclopentyl]urea] here?
A: 94%

Q: With `CCS(=O)(=O)N[C@H]1CC[C@H](NC(=O)Nc2cc(C(=O)N3CCC(c4ccc(C#N)cc4)CC3)ccc2C)C1` [Example 324, 3-[5-[4-(4-cyanophenyl)piperidine-1-carbonyl]-2-methyl-phenyl]-1-[(1S,3S)-3-(ethylsulfonylamino)cyclopentyl]urea] as the compound, how does the inhibition at 100 µM read?
A: 97.1%

Q: For `Cc1ccc(C(=O)N2CCC(c3ccc(F)cc3)CC2)cc1NC(=O)NC(C)C` [Example 325, 1-[5-[4-(4-fluorophenyl)piperidine-1-carbonyl]-2-methyl-phenyl]-3-propan-2-yl-urea], which inhibition at 100 µM is on record?
A: 72.6%

Q: With `CC(=O)NCCNC(=O)Nc1cc(C(=O)N2CCC(c3ccc(C(F)(F)F)cc3)CC2)ccc1C` [Example 326, N-[2-[[2-methyl-5-[4-[4-(trifluoromethyl)phenyl]piperidine-1-carbonyl]phenyl]carbamoylamino]ethyl]acetamide] as the compound, how does the inhibition at 100 µM read?
A: 91.8%

Q: Which inhibition at 100 µM does the source give for `Cc1ccc(C(=O)N2CCC(c3cccc(C#N)c3)CC2)cc1NC(=O)NC(C)C` [Example 327, 1-[5-[4-(3-cyanophenyl)piperidine-1-carbonyl]-2-methyl-phenyl]-3-propan-2-yl-urea] here?
A: 93.1%

Q: For `COc1ccc(C2CCN(C(=O)c3ccc(C)c(NC(=O)NC(C)C)c3)CC2)cc1` [Example 328, 1-[5-[4-(4-methoxyphenyl)piperidine-1-carbonyl]-2-methyl-phenyl]-3-propan-2-yl-urea], which inhibition at 100 µM is on record?
A: 86.7%

Q: Which inhibition at 100 µM does the source give for `CNC(=O)c1ccc(C2CCN(C(=O)c3ccc(C)c(NC(=O)NC(C)C)c3)CC2)cc1` [Example 329, N-methyl-4-[1-[4-methyl-3-(propan-2-ylcarbamoylamino)benzoyl]-4-piperidyl]benzamide] here?
A: 84.3%

Q: For `CCOC(=O)N1CCN(C(=O)Nc2cc(C(=O)N3CCC(c4ccc(C#N)cc4)CC3)ccc2C)CC1` [Example 330, Ethyl 4-[[5-[4-(4-cyanophenyl)piperidine-1-carbonyl]-2-methyl-phenyl]carbamoyl]piperazine-1-carboxylate], which inhibition at 100 µM is on record?
A: 82.4%

Q: `Cc1ccc(C(=O)N2CCC(c3ccc(C#N)cc3)CC2)cc1NC(=O)N1CCN(C(=O)C(C)C)CC1` [Example 331, N-[5-[4-(4-cyanophenyl)piperidine-1-carbonyl]-2-methyl-phenyl]-4-(2-methylpropanoyl)piperazine-1-carboxamide] was tested. Which inhibition at 100 µM did it give?
A: 84.2%

Q: `Cc1ccc(C(=O)N2CCC(c3ccc(C#N)cc3)CC2)cc1NC(=O)N1CCN(C(=O)N(C)C)CC1` [Example 332, N-[5-[4-(4-cyanophenyl)piperidine-1-carbonyl]-2-methyl-phenyl]-N′,N′-dimethyl-piperazine-1,4-dicarboxamide] was tested. Which inhibition at 100 µM did it give?
A: 96.5%

Q: `Cc1ccc(C(=O)N2CCC(c3ccc(C(F)(F)F)cc3)CC2)cc1NC(=O)NC1CCCN(C(=O)OC(C)(C)C)C1` (stereo not drawn) [Example 333, tert-butyl 3-[[2-methyl-5-[4-[4-(trifluoromethyl)phenyl]piperidine-1-carbonyl]phenyl]carbamoylamino]piperidine-1-carboxylate] was tested. Which inhibition at 100 µM did it give?
A: 90.9%

Q: How did the inhibition at 100 µM turn out when `Cc1ccc(C(=O)N2CCC(c3ccc(C(F)(F)F)cc3)CC2)cc1NC(=O)NCCN(C)C` [Example 334, 3-(2-dimethylaminoethyl)-1-[2-methyl-5-[4-[4-(trifluoromethyl)phenyl]piperidine-1-carbonyl]phenyl]urea] was run?
A: 92.6%

Q: Which inhibition at 100 µM does the source give for `Cc1ccc(C(=O)N2CCC(c3ccc(C#N)cc3)CC2)cc1NC(=O)NC1(C)CCS(=O)(=O)C1` (stereo not drawn) [Example 335, 1-[5-[4-(4-cyanophenyl)piperidine-1-carbonyl]-2-methyl-phenyl]-3-(3-methyl-1,1-dioxo-thiolan-3-yl)urea] here?
A: 78.2%

Q: For `Cc1ccc(C(=O)N2CCC(c3ccc(C(F)(F)F)cc3)CC2)cc1NC(=O)NCCNC(=O)OC(C)(C)C` [Example 336, tert-butyl N-[2-[[2-methyl-5-[4-[4-(trifluoromethyl)phenyl]piperidine-1-carbonyl]phenyl]carbamoylamino]ethyl]carbamate], which inhibition at 100 µM is on record?
A: 86.9%

Q: How did the inhibition at 100 µM turn out when `Cc1ccc(C(=O)N2CCC(c3ccc(C(F)(F)F)cc3)CC2)cc1NC(=O)NC1CCCNC1` (stereo not drawn) [Example 337, 1-[2-methyl-5-[4-[4-(trifluoromethyl)phenyl]piperidine-1-carbonyl]phenyl]-3-(3-piperidyl)urea] was run?
A: 90.1%

Q: `CC(=O)NCCNC(=O)Nc1cc(C(=O)N2CCC(c3ccc(F)cc3)CC2)ccc1C` [Example 338, N-[2-[[5-[4-(4-fluorophenyl)piperidine-1-carbonyl]-2-methyl-phenyl]carbamoylamino]ethyl]acetamide] was tested. Which inhibition at 100 µM did it give?
A: 81.3%

Q: For `Cc1ccc(C(=O)N2CCC(c3ccc(F)cc3)CC2)cc1NC(=O)NC1CN(C(=O)OC(C)(C)C)C1` [Example 339, tert-butyl 3-[[5-[4-(4-fluorophenyl)piperidine-1-carbonyl]-2-methyl-phenyl]carbamoylamino]azetidine-1-carboxylate], which inhibition at 100 µM is on record?
A: 81.3%

Q: For `Cc1ccc(C(=O)N2CCC(c3ccc(C(F)(F)F)cc3)CC2)cc1NC(=O)NCCNS(=O)(=O)N(C)C` [Example 340, 3-[2-(dimethylsulfamoylamino)ethyl]-1-[2-methyl-5-[4-[4-(trifluoromethyl)phenyl]piperidine-1-carbonyl]phenyl]urea], which inhibition at 100 µM is on record?
A: 96%

Q: Which inhibition at 100 µM does the source give for `Cc1ccc(C(=O)N2CCC(c3ccc(C(F)(F)F)cc3)CC2)cc1NC(=O)NCCNS(C)(=O)=O` [Example 341, 3-(2-methanesulfonamidoethyl)-1-[2-methyl-5-[4-[4-(trifluoromethyl)phenyl]piperidine-1-carbonyl]phenyl]urea] here?
A: 95.4%

Q: Which inhibition at 100 µM does the source give for `Cc1ccc(C(=O)N2CCC(c3ccc(C(F)(F)F)cc3)CC2)cc1NC(=O)NCCN` [Example 342, 3-(2-aminoethyl)-1-[2-methyl-5-[4-[4-(trifluoromethyl)phenyl]piperidine-1-carbonyl]phenyl]urea] here?
A: 82.8%

Q: With `Cc1ccc(C(=O)N2CCC(c3ccc(F)cc3)CC2)cc1NC(=O)NC1CCN(C(=O)OC(C)(C)C)C1` (stereo not drawn) [Example 343, tert-butyl 3-[[5-[4-(4-fluorophenyl)piperidine-1-carbonyl]-2-methyl-phenyl]carbamoylamino]pyrrolidine-1-carboxylate] as the compound, how does the inhibition at 100 µM read?
A: 93.6%

Q: `Cc1ccc(C(=O)N2CCC(c3ccc(C#N)cc3)CC2)cc1NC(=O)N1CCC(S(C)(=O)=O)C1` (stereo not drawn) [Example 344, N-[5-[4-(4-cyanophenyl)piperidine-1-carbonyl]-2-methyl-phenyl]-3-methylsulfonyl-pyrrolidine-1-carboxamide] was tested. Which inhibition at 100 µM did it give?
A: 112%

Q: For `Cc1ccc(C(=O)N2CCC(c3ccc(C#N)cc3)CC2)cc1NC(=O)N1CC(O)C1` [Example 345, N-[5-[4-(4-cyanophenyl)piperidine-1-carbonyl]-2-methyl-phenyl]-3-hydroxy-azetidine-1-carboxamide], which inhibition at 100 µM is on record?
A: 96.5%

Q: `Cc1ccc(C(=O)N2CCC(c3ccc(C#N)cc3)CC2)cc1NC(=O)N1CCC1` [Example 346, N-[5-[4-(4-cyanophenyl)piperidine-1-carbonyl]-2-methyl-phenyl]azetidine-1-carboxamide] was tested. Which inhibition at 100 µM did it give?
A: 75.5%

Q: `Cc1ccc(C(=O)N2CCC(c3ccc(F)cc3)CC2)cc1NC(=O)NCCN(C)C(=O)OC(C)(C)C` [Example 347, tert-butyl N-[2-[[5-[4-(4-fluorophenyl)piperidine-1-carbonyl]-2-methyl-phenyl]carbamoylamino]ethyl]-N-methyl-carbamate] was tested. Which inhibition at 100 µM did it give?
A: 86.3%

Q: Which inhibition at 100 µM does the source give for `CC(=O)N1CCC(NC(=O)Nc2cc(C(=O)N3CCC(c4ccc(F)cc4)CC3)ccc2C)C1` (stereo not drawn) [Example 348, 3-(1-acetylpyrrolidin-3-yl)-1-[5-[4-(4-fluorophenyl)piperidine-1-carbonyl]-2-methyl-phenyl]urea] here?
A: 84.5%

Q: With `Cc1ccc(C(=O)N2CCC(c3ccc(F)cc3)CC2)cc1NC(=O)NC1CCNC1` (stereo not drawn) [Example 349, 1-[5-[4-(4-fluorophenyl)piperidine-1-carbonyl]-2-methyl-phenyl]-3-pyrrolidin-3-yl-urea] as the compound, how does the inhibition at 100 µM read?
A: 88.7%

Q: `Cc1ccc(C(=O)N2CCC(O)(c3ccc(Cl)cc3)CC2)cc1NC(=O)NC(C)C` [Example 350, 1-[5-[4-(4-chlorophenyl)-4-hydroxy-piperidine-1-carbonyl]-2-methyl-phenyl]-3-propan-2-yl-urea] was tested. Which inhibition at 100 µM did it give?
A: 71.4%

Q: For `Cc1ccc(C(=O)N2CCC(c3ccc(F)cc3)CC2)cc1NC(=O)NCCN(C)S(C)(=O)=O` [Example 351, 1-[5-[4-(4-fluorophenyl)piperidine-1-carbonyl]-2-methyl-phenyl]-3-[2-(methyl-methylsulfonyl-amino)ethyl]urea], which inhibition at 100 µM is on record?
A: 88.9%

Q: Which inhibition at 100 µM does the source give for `CC(=O)N(C)CCNC(=O)Nc1cc(C(=O)N2CCC(c3ccc(F)cc3)CC2)ccc1C` [Example 352, N-[2-[[5-[4-(4-fluorophenyl)piperidine-1-carbonyl]-2-methyl-phenyl]carbamoylamino]ethyl]-N-methyl-acetamide] here?
A: 75.6%

Q: With `CCC(=O)NCCN(C)C(=O)Nc1cc(C(=O)N2CCC(c3ccc(C#N)cc3)CC2)ccc1C` [Example 353, N-[2-[[5-[4-(4-cyanophenyl)piperidine-1-carbonyl]-2-methyl-phenyl]carbamoyl-methyl-amino]ethyl]propanamide] as the compound, how does the inhibition at 100 µM read?
A: 78.4%

Q: Which inhibition at 100 µM does the source give for `Cc1ccc(C(=O)N2CCC(c3ccc(C#N)cc3)CC2)cc1NC(=O)NC(C)c1cccnc1` (stereo not drawn) [Example 354, 1-[5-[4-(4-cyanophenyl)piperidine-1-carbonyl]-2-methyl-phenyl]-3-(1-pyridin-3-ylethyl)urea] here?
A: 91.3%
